Experimental data published in US9987276B2 (Celgene CAR LLC, priority 2008, dated 2018).
Like-named read-outs stand apart in the source and are kept apart here.

How the values were obtained:
[1] = biological target: T1, BTK (Homo sapiens (Human), UniProt Q06187); assay: Omnia assay for potency assessment against BTK; assay type: biochemical; conditions: [BTK]=5 nM, Omnia assay; read-out: BTK Inhibition (IC50)
Protocol: The modified BTK-optimized reagent conditions for the above protocol are:
[BTK]=5 nM, [ATP]=[…], [Y5-Sox]=[…] (ATP KMapp˜[…]).

[2] = biological target: EGFR-T790M/L858R (Homo sapiens (Human), UniProt P00533, L858R/T790M); assay: Omnia assay for potency assessment against EGFR (T790M/L858R); conditions: read-out: EGFR (T790M/L858R); EGFR mutant T790M/L858R
EGFR-T790M/L858R, sequence (P00533 25-1210 T790M/L858R): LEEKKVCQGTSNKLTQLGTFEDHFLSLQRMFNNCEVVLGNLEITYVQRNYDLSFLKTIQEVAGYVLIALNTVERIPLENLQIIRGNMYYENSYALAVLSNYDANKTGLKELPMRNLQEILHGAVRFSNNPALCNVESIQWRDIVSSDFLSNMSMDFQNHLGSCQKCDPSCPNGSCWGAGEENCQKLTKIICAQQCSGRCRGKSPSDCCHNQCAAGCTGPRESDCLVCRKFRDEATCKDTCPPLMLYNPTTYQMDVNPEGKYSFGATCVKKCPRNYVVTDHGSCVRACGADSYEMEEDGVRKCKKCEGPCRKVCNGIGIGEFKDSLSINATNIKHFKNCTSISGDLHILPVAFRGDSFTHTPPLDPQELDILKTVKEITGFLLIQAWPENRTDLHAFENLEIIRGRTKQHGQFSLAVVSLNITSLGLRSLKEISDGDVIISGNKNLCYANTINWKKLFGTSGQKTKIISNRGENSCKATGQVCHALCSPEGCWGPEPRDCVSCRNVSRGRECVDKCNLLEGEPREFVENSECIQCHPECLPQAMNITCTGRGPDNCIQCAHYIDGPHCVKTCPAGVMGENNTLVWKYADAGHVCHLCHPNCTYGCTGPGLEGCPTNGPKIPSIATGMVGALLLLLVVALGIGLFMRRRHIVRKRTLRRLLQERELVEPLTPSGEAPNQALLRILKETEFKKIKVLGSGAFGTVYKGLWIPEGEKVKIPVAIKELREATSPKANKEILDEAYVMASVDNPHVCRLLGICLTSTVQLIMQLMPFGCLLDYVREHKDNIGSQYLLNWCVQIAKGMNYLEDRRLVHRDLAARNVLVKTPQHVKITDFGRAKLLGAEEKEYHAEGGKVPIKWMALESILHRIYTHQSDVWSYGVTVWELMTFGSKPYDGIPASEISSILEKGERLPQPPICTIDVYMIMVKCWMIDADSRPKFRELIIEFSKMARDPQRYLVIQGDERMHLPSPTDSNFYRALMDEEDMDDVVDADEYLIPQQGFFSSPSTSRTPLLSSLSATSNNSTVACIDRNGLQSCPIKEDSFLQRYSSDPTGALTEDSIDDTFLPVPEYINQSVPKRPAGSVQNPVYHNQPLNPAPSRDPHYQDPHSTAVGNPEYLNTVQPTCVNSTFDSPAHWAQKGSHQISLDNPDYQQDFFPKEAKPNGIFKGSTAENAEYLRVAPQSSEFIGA

[3] = biological target: EGFR T790M (Homo sapiens (Human), UniProt P00533, T790M); assay: EGFR mutant T790M inhibition assay; assay type: biochemical
EGFR T790M, sequence (P00533 25-1210 T790M): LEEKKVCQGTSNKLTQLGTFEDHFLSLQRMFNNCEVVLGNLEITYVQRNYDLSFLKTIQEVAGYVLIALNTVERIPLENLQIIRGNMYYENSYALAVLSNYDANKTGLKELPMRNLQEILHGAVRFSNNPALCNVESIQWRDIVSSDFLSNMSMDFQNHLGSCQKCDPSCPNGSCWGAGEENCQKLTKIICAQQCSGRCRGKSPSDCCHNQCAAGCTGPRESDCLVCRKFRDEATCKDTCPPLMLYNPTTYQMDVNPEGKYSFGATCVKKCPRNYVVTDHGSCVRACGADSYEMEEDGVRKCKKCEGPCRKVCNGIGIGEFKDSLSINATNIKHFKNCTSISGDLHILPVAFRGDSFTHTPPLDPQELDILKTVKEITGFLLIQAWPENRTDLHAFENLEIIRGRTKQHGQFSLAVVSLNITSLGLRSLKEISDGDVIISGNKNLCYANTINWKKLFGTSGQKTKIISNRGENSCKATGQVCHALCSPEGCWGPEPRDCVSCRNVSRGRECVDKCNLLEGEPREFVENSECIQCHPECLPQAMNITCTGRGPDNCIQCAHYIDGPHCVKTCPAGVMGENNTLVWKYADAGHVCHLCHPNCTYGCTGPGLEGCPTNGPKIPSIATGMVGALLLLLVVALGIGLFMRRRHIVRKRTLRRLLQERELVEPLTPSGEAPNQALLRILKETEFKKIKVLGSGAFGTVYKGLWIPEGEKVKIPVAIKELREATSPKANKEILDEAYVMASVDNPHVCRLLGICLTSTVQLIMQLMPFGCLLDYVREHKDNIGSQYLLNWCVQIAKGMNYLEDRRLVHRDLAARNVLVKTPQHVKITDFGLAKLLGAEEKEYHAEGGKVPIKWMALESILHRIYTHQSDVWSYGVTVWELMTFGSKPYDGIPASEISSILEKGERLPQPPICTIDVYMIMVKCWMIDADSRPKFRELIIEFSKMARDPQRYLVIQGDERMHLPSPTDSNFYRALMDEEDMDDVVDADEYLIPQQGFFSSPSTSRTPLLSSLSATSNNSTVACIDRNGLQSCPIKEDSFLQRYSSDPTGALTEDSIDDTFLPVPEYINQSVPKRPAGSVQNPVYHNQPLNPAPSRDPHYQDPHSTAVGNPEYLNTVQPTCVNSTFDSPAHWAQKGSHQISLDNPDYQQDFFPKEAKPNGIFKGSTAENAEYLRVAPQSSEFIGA
Protocol: The Omnia Assay Protocol for potency assessment against EGFR is performed as described in Example 251 above except that the EGFR-WT- and EGFR T790M/L858R-modified optimized reagent conditions are: […]

[4] = biological target: T1, BTK; assay: BTK Ramos cellular assay (PLCγ2 phosphorylation); assay type: cell-based; conditions: Ramos cells, 1 hour compound, anti-IgM stimulation, p-PLCγ2; read-out: BTK Inhibition (IC50), BTK Ramos cellular inhibition
[5] = biological target: EGFR-WT (Homo sapiens (Human), UniProt P00533); assay: Omnia assay for potency assessment against EGFR (WT)
EGFR-WT, sequence (P00533 668-1210): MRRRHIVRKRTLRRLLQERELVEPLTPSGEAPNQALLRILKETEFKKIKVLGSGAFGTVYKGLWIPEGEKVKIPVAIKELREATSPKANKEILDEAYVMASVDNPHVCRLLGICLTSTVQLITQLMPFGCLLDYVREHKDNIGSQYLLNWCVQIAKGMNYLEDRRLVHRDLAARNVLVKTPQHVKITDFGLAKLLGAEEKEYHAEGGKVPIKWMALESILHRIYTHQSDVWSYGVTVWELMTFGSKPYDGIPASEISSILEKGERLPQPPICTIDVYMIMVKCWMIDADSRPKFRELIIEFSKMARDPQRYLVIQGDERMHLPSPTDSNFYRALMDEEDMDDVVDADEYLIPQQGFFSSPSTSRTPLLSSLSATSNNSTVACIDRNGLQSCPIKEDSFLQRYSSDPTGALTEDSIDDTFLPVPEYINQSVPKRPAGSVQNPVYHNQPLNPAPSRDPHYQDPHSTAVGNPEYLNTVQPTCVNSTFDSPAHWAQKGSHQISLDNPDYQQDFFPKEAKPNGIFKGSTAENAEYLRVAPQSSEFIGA

[6] = biological target: T1, BTK; assay: Washout experiment with Ramos cells; assay type: cell-based; conditions: 100 nM compound for 1 hour, then washout
Protocol: Ramos cells were serum starved for one hour in RPMI media+1% glutamine at 37° C. After starvation, Ramos cells were treated with 100 nM compound diluted in serum free RPMI media for 1 hour. After compound treatment, the media was removed and cells were washed with compound-free media. Subsequently, Ramos cells were washed every 2 hours and resuspended in fresh compound-free media. Cells were collected at specified timepoints, treated with 1 ug anti-human IgM (Southern Biotech cat #2022-01) for 10 minutes on ice to induce BCR signaling and then washed in PBS. Ramos cells were then lysed in Cell Extraction Buffer (Invitrogen FNN0011) supplemented with Roche complete protease inhibitor tablets (Roche 11697498001) and phosphatase inhibitors (Roche 04 906 837 001) and 18 ug total protein lysate was loaded in each lane. Inhibition of BTK kinase activity was assayed by measuring its substrate (PLCγ2) phosphorylation by western blot with phospho-specific antibodies from Cell Signaling Technologies cat #3871. The results of this experiment with compounds I-2, I-4 and I-7 are depicted in FIGS. 1, 2 and 3.

[7] = biological target: BMX (Homo sapiens (Human), UniProt P51813); assay: Omnia assay for potency assessment against active forms of BMX kinase; assay type: biochemical; conditions: [BMX]=2.5 nM, [ATP]=100 μM, [Y5-Sox]=7.5 μM; read-out: BMX Inhibition
BMX, sequence (P51813 whole entry): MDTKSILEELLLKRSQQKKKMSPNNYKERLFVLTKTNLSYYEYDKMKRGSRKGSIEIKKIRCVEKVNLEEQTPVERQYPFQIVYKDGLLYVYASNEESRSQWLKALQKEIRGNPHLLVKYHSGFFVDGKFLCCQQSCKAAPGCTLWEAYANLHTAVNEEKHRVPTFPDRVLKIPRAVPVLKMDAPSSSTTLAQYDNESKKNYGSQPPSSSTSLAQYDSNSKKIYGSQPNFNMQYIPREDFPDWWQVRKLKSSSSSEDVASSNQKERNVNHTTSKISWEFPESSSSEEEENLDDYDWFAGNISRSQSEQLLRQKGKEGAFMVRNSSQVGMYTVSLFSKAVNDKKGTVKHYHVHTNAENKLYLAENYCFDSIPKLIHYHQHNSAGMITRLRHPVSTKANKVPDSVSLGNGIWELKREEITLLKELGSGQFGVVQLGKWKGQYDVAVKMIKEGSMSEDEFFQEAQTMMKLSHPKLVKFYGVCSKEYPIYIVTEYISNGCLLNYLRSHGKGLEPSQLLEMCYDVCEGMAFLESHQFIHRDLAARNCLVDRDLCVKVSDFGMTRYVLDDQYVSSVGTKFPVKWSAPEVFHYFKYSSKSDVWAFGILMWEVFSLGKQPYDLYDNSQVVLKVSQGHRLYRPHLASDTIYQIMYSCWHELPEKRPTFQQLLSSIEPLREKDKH
Protocol: Briefly, 10× stocks of EGFR-WT (PV3872) from Invitrogen and EGFR-T790M/L858R (40350) from BPS Bioscience, San Diego, Calif., 1.13×ATP (AS001A) and appropriate Tyr-Sox conjugated peptide substrates (KCZ1001) were prepared in 1× kinase reaction buffer consisting of 20 mM Tris, pH 7.5, 5 mM MgCl2, 1 mM EGTA, 5 mM β-glycerophosphate, 5% glycerol (10× stock, KB002A) and 0.2 mM DTT (DS001A).
This example describes continuous-read kinase assays to measure inherent potency of compound against active forms of BMX enzymes as described in Example 251 above except that the modified BMX-optimized reagent conditions are:
[BMX]=2.5 nM, [ATP]=100 μM, [Y5-Sox]=7.5 μM (ATP KMapp=107 μM).

[8] = biological target: ITK (Homo sapiens (Human), UniProt Q08881); assay: Omnia assay for potency assessment against active forms of ITK kinase; assay type: biochemical; conditions: [ITK]=10 nM, [ATP]=25, [Y6-Sox]=10 μM; read-out: ITK Inhibition
ITK, sequence (Q08881 whole entry): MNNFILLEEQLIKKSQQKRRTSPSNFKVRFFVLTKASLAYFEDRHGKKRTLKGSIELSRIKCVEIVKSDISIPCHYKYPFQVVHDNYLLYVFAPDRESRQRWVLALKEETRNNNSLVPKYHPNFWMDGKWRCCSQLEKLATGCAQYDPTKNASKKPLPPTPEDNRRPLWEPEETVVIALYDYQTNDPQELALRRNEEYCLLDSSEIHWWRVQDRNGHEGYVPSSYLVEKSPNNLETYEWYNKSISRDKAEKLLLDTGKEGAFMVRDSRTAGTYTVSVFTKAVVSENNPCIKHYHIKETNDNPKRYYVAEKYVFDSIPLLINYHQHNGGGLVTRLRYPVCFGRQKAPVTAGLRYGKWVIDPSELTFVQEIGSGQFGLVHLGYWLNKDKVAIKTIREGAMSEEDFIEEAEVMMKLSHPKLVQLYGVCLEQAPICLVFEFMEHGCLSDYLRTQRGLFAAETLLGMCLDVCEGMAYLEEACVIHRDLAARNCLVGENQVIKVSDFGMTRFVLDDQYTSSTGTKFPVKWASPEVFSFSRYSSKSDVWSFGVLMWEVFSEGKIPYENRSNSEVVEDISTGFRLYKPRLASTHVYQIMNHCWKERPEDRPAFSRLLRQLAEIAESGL
Protocol: [ITK]=10 nM, [ATP]=25 [Y6-Sox]=10 μM (ATP KMapp=33 μM).

[9] = biological target: T1, BTK; assay: Mass spectrometry for BTK (intact protein); assay type: binding; conditions: 1 hr, 10× fold excess of compound
Protocol: Intact BTK was incubated for 1 hr at a 10× fold excess of I-7 to protein. Aliquots (2 μl) of the samples were diluted with 10 μl of 0.1% TFA prior to micro C4 ZipTipping directly onto the MALDI target using Sinapinic acid as the desorption matrix (10 mg/ml in 0.1% TFA:Acetonitrile 20:80).

[10] = read-out: EGFR (wild type inhibition), EGFR wild type

T1 sequence (Q06187 whole entry): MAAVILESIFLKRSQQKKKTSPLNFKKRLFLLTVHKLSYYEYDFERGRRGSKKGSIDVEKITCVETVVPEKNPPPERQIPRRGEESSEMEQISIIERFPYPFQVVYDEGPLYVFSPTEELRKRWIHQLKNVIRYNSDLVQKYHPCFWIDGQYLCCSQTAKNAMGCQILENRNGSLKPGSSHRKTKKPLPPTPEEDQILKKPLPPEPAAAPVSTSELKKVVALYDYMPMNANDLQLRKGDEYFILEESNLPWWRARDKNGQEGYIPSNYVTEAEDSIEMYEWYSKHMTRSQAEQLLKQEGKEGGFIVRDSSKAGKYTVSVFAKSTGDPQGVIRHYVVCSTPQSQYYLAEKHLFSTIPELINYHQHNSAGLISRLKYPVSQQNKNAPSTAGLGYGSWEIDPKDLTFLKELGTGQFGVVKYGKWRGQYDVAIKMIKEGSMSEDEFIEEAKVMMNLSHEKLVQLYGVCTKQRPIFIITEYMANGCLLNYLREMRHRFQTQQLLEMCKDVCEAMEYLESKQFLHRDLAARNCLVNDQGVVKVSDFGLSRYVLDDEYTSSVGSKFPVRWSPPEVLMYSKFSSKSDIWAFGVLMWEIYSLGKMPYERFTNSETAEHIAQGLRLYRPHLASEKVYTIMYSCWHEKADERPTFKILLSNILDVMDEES

IC50 [1] [µM] | IC50 [2] [µM] | IC50 [3] [µM] | IC50 [4] [µM] | IC50 [5, 10] [µM] | BTK Inhibition Type [6] | IC50 [7] [µM] | IC50 [5] [µM] | IC50 [8] [µM] | covalent modification of BTK (mass spectrometry) [9] | SMILES
< 0.01 | < 0.01 | < 0.01 | 0.01 to 0.1 | < 0.01 | – | – | – | – | – | C=CC(=O)Nc1cccc(Nc2ncc(F)c(Nc3cccc(C)c3)n2)c1 [Compound I-3, N-(3-(5-fluoro-4-(m-tolylamino)pyrimidin-2-ylamino)phenyl) acrylamide]
< 0.01 | < 0.01 | – | 0.1 to 1 | < 0.01 | – | – | – | – | – | C=CC(=O)Nc1ccc(C)c(Nc2ncc(C)c(Nc3cccc(C)c3)n2)c1 [Compound I-8, N-(4-methyl-3-(5-methyl-4-(m-tolylamino)pyrimidin-2-ylamino)phenyl)acrylamide]
< 0.01 | – | – | – | – | irreversible | < 0.01 | 0.01 to 0.1 | 0.01 to 0.1 | – | C=CC(=O)Nc1cccc(Nc2nc(Nc3ccccc3)ncc2F)c1 [Compound I-28, N-(3-(5-fluoro-2-(phenylamino)pyrimidin-4-ylamino)phenyl)acrylamide]
< 0.01 | < 0.01 | – | < 0.01 | – | irreversible | < 0.01 | 0.01 to 0.1 | 0.01 to 0.1 | – | C#CCOc1cccc(Nc2ncc(C)c(Nc3cccc(NC(=O)C=C)c3)n2)c1 [Compound I-35, N-(3-(5-methyl-2-(3-(prop-2-ynyloxy)phenylamino)pyrimidin-4-ylamino)phenyl) acrylamide]
< 0.01 | < 0.01 | – | 0.01 to 0.1 | – | reversible | < 0.01 | 0.01 to 0.1 | 0.01 to 0.1 | – | Cc1cnc(Nc2ccccc2)nc1Nc1cccc(NC(=O)/C=C/CN(C)C)c1 [Compound I-38, (E)-4-(dimethylamino)-N-(3-(5-methyl-2-(phenylamino)pyrimidin-4-ylamino)phenyl)but-2-enamide]
< 0.01 | 0.1 to 1 | – | 0.01 to 0.1 | 1 to 10 | – | < 0.01 | – | 0.1 to 1 | – | C=CC(=O)Nc1ccc(Nc2nc(Nc3ccccc3)ncc2C)cc1 [Compound I-39, N-(4-(5-methyl-2-(phenylamino)pyrimidin-4-ylamino)phenyl) acrylamide]
< 0.01 | – | – | – | – | – | – | 0.01 to 0.1 | – | completely modify | C=C(C#N)C(O)c1cccc(Nc2nc(Nc3ccc(OCCOC)cc3)ncc2F)c1 (stereo not shown) [Compound I-71, 2-((3-(5-fluoro-2-(4-(2-methoxyethoxy)phenylamino)pyrimidin-4-ylamino)phenyl)(hydroxy)methyl)acrylonitrile]
< 0.01 | – | – | 0.01 to 0.1 | 1 to 10 | – | – | – | 1 to 10 | completely modify | C=CC(=O)N1CCOc2ccc(Nc3ncc(F)c(Nc4cccc(Cl)c4)n3)cc21 [Compound I-149, 1-(6-(4-(3-chlorophenylamino)-5-fluoropyrimidin-2-ylamino)-2H-benzo[b][1,4]oxazin-4(3H)-yl)prop-2-en-1-one]
< 0.01 | – | – | – | – | – | – | 0.01 to 0.1 | – | completely modify | C=C(C#N)C(O)c1ccc(Nc2nc(Nc3ccccc3)ncc2F)cc1 (stereo not shown) [Compound I-161, 2-((4-(5-fluoro-2-(phenylamino)pyrimidin-4-ylamino)phenyl)(hydroxy)methyl)acrylonitrile]
< 0.01 | – | – | 0.01 to 0.1 | – | – | – | 0.01 to 0.1 | 0.01 to 0.1 | completely modify | C=CC(=O)N1CCC[C@@H](Nc2nc(Nc3cccc(OC)c3)ncc2F)C1 [Compound I-195, (R)-1-(3-(5-fluoro-2-(3-methoxyphenylamino)pyrimidin-4-ylamino)piperidin-1-yl)prop-2-en-1-one]
< 0.01 | – | – | 0.1 to 1 | – | – | – | 0.1 to 1 | < 0.01 | completely modify | CC(C)=CC(=O)c1cccc(Nc2nc(Nc3cccc(OCCN(C)C)c3)ncc2F)c1 [Compound I-207]
< 0.01 | – | – | 0.01 to 0.1 | – | – | – | 0.01 to 0.1 | 0.01 to 0.1 | completely modify | C=CC(=O)N(C)Cc1ccc(Nc2nc(Nc3ccccc3)ncc2C)cc1 [Compound I-219, N-methyl-N-(4-(5-methyl-2-(phenylamino)pyrimidin-4-ylamino)benzyl)acrylamide]
< 0.01 | – | – | < 0.01 | – | irreversible | – | 0.01 to 0.1 | 0.01 to 0.1 | – | C=CC(=O)Nc1cccc(Oc2nc(Nc3ccccc3)ncc2F)c1 [Compound I-228, N-(3-(5-fluoro-2-(phenylamino)pyrimidin-4-yloxy)phenyl)acrylamide]
< 0.01 | – | – | < 0.01 | – | irreversible | – | – | < 0.01 | – | C=CC(=O)Nc1cccc(Nc2nc(Nc3ccccc3)ncc2C(N)=O)c1 [Compound I-230, 4-(3-acrylamidophenylamino)-2-(phenylamino)pyrimidine-5-carboxamide]
< 0.01 | – | – | < 0.01 | – | irreversible | – | 0.01 to 0.1 | < 0.01 | – | C=CC(=O)Nc1cccc(Nc2nc(Nc3cccc(OC)c3)ncc2C(F)(F)F)c1 [Compound I-242, N-(3-(5-trifluoromethyl-2-(3-methoxyphenylamino)pyrimidin-4-ylamino)phenyl)acrylamide]
< 0.01 | – | – | < 0.01 | – | irreversible | – | 0.01 to 0.1 | 0.01 to 0.1 | – | C=CC(=O)Nc1cccc(Nc2nc(Nc3ccc(OC)nc3)ncc2F)c1 [Compound I-243, N-(3-(5-fluoro-2-(6-methoxypyridin-3-ylamino)pyrimidin-4-ylamino)phenyl)acrylamide]
< 0.01 | – | – | 0.01 to 0.1 | – | – | < 0.01 | 0.1 to 1 | 0.1 to 1 | completely modify | C=CC(=O)Nc1cccc(Nc2nc(Nc3cccc(OC(F)(F)F)c3)ncc2F)c1 [Compound I-244, N-(3-(5-fluoro-2-(3-(trifluoromethoxy)phenylamino)pyrimidin-4-ylamino)phenyl)acrylamide]
< 0.01 | – | – | < 0.01 | – | irreversible | < 0.01 | 0.01 to 0.1 | 0.01 to 0.1 | – | C=CC(=O)Nc1cccc(Nc2nc(Nc3ccc(F)cc3)ncc2F)c1 [Compound I-247, N-(3-(5-fluoro-2-(4-fluorophenylamino)pyrimidin-4-ylamino)phenyl)acrylamide]
< 0.01 | – | – | < 0.01 | < 0.01 | irreversible | < 0.01 | – | < 0.01 | – | C=CC(=O)Nc1cccc(Oc2nc(Nc3ccccc3)ncc2C)c1 [Compound I-248, N-(3-(5-methyl-2-(phenylamino)pyrimidin-4-yloxy)phenyl)acrylamide]
